According to EP0094644A1, “Utilization of a cholecalciferol derivative” (F. HOFFMANN-LA ROCHE & CO. Aktiengesellschaft, priority 1982, dated 1983):

Tests used:
Type in all cases: in vivo
[1] = tested on: Weissen Leghorn-Küken; test: Intestinal calcium absorption in chicks (serum 45Ca); settings: for Serum ^45Ca: serum 45 min after isotope
Description: b) Intestinale Calcium-Absorption bei Küken
Weissen Leghorn-Küken wird während 21 Tagen unter UV-freier Bestrahlung eine Vitamin D-arme Diät gegeben. Eine Einzeldosis der Testverbindung, gelöst in Propylenglykol, wird den Tieren oral verabreicht. Danach werden zu verschiedenen Zeitpunkten 2 µCi ^45 Ca (Chlorid) oral verabreicht und die Serumradioaktivität 45 Minuten nach Verabreichung des Isotops gemessen. In jeder Versuchsperiode werden Kontrolltiere verwendet, denen nur das Vehikel verabreicht wird. In jeder Behandlungsgruppe und jeder Kontrollgruppe werden 10 oder 11 Küken verwendet.

[2] = tested on: Weissen Leghorn-Küken; test: Antirachitic activity in chicks (tibia ash weight); settings: for Mittleres Tibiaaschengewicht: 21 days, vitamin D-deficient diet, vehicle control 120,7 ± 5,9
Description: a) Antirachitische Aktivität
Weissen Leghorn-Küken wird unter UV-freier Beleuchtung eine Vitamin D-arme, 1% Calcium und 0,7% Phosphor enthaltende Diät gegeben. Die in Propylenglykol gelöste Testverbindung wird während 21 Tagen den am Anfang des Versuchs 1 oder 2 Tage alten Küken oral verabreicht. Kontrolltiere werden mit dem Vehikel behandelt. Die Küken werden am Tag nach dem letzten Behandlungstag seziert und das Tibiaaschengewicht wird ermittelt. Es werden 9 oder 10 Küken für jede Behandlungsgruppe und für die Kontrollgruppe verwendet. Die mittleren Tibiaaschengewichte ausgedrückt in mg sind in der nachfolgenden Tabelle I angegeben.

[3] = tested on: Männliche Charles River Ratten; test: Prevention of EHDP-induced mineralisation block in rats (epiphyseal plate width); settings: for Mittlere Breite der Epiphysenplatte: 10 days with EHDP 2 mg/Ratte s.c., EHDP alone 1182 ± 51, no EHDP 440 ± 2
Description: c) Verhütung der durch EHDP-induzierten Blockierung der Mineralisierung bei Ratten
Männliche Charles River Ratten werden 10 Tage mit Dinatrium-äthan-1-hydroxy-1,1-diphosphonat (EHDP) behandelt. Die Verbindung wird in destilliertem Wasser in einer Konzentration von 2 mg/0,2 ml/Ratte jeden Tag subcutan verabreicht. Die fluorierte Verbindung wird in Propylenglykol jeden Tag oral verabreicht. Am Tag nach der letzten Behandlung werden die Ratten seziert und deren Tibia durch Silberimprägnierung der Knochensalze behandelt. Die Breite der Epiphysenplatte wird mit einem Mikroskop gemessen. Zur Ermittlung der Aktivität wird die dosisabhängige Verengerung der durch EHDP-Induktion erweiterten Epiphysenplatte gemessen. In jeder Behandlungsgruppe werden 10 Ratten verwendet. Es werden auch positive (EHDP allein) und negative (Vehikel allein) Kontrollgruppen von 10 Ratten in jedem Versuch verwendet.

[4] = 100 ng single oral dose, 24 Std., vehicle 992 ± 81
[5] = 100 ng single oral dose, 48 Std., vehicle 769 ± 90

Row | Structure (SMILES) | Serum ^45Ca [1, 4] | Serum ^45Ca [1, 5] | Serum ^45Ca ([1]; 200 ng single oral dose, 72 Std., vehicle 647 ± 69) | Mittleres Tibiaaschengewicht ([2]; 1 ng/Küken/Tag oral) | Mittleres Tibiaaschengewicht ([2]; 3 ng/Küken/Tag oral) | Mittleres Tibiaaschengewicht ([2]; 10 ng/Küken/Tag oral) | Mittleres Tibiaaschengewicht ([2]; 30 ng/Küken/Tag oral) | antirachitische Aktivität ([2]; summary in words of Tabelle I) | Serum ^45Ca ([1]; 100 ng single oral dose, 72 Std., vehicle 647 ± 69) | Serum ^45Ca ([1]; 100 ng single oral dose, 96 Std., vehicle 586 ± 70) | lang andauernde intestinale Calcium-Absorption ([1]; duration after 100 ng Einzeldosis, oral) [Stunden] | Mittlere Breite der Epiphysenplatte ([3]; 1 ng/Ratte/Tag oral) [Mikron] | Mittlere Breite der Epiphysenplatte ([3]; 3 ng/Ratte/Tag oral) [Mikron] | Mittlere Breite der Epiphysenplatte ([3]; 10 ng/Ratte/Tag oral) [Mikron] | Mittlere Breite der Epiphysenplatte ([3]; 30 ng/Ratte/Tag oral) [Mikron] | Calcifizierung der Tibiaepiphysenplatte ([3]; EHDP-blocked rats, summary in words of Tabelle III)
1 | C=C1/C(=C\C=C2/CCC[C@]3(C)[C@@H]([C@H](C)CCCC(C)(C)O)CC[C@@H]23)C[C@@H](O)C[C@@H]1O [Verbindung A, 1a,25-Dihydroxycholecalciferol, reference compound] | 1800 ± 181 cpm/0,2 ml | 1006 ± 133 cpm/0,2 ml | 710 ± 62 cpm/0,2 ml |  |  |  |  |  |  |  |  |  |  |  |  | 
2 | C=C1/C(=C\C=C2/CCC[C@]3(C)[C@@H]([C@H](C)CCC(F)(F)C(C)(C)O)CC[C@@H]23)C[C@@H](O)C[C@@H]1O [fluorierte Verbindung, 24,24-Difluor-la,25-dihydroxycholecalciferol] | 2064 ± 170 cpm/0,2 ml | 1539 ± 99 cpm/0,2 ml |  | 111,5 ± 4,7 mg | 151,1 ± 8,2 mg | 227,1 ± 8,2 mg | 244,8 ± 7,4 mg | beträchtliche antirachitische Aktivität | 1164 ± 90 cpm/0,2 ml | 998 ± 61 cpm/0,2 ml | 96 | 839 ± 18 | 674 ± 18 | 540 ± 16 | 412 ± 9 | die Calcifizierung der Tibiaepiphysenplatte bei EHDP-blockierten Ratten bewirkt
